Experimental data as given in patent publication US12508261B2, “Methods of treating depression with vortioxetine” (Rundle Research LLC, priority 2017, dated 2025).

Test: Regression model estimating vortioxetine half-life and MAOI delay from total body fat and steady-state plasma concentration (CYP2D6 metabolizer status)
Design: species or system human
Source text: Data obtained in the study described in Example 1 and Table 1 provided the basis for a regression model (having a r^2 value of 88%) based on total body fat and steady-state vortioxetine plasma concentration. Because the steady-state plasma concentration of vortioxetine correlates with metabolizer status, this regression provides a means of estimating vortioxetine half-life for patients based on total body fat and CYP2D6 metabolizer status.
Alternatively, the delay period can be calculated based on any particular values in Table 1, or any statistical parameter for characterizing the subject population of Table, such as the arithmetic mean, geometric mean, maximum, minimum, maximum or minimum 90% confidence interval, etc. of the half-life (e.g., 7.5×the average t1/2, 7.5×the maximum t1/2, and so forth, or the 21 day equivalency to a normal weight extensive metabolizer subject, based on the average t1/2 or the maximum t1/2 or any of the aforementioned statistically parameters).

[1] = Extensive(a) average of obese steady-state concentration for extensive metabolizers, total fat 60 kg
[2] = Extensive(a) average of obese steady-state concentration for extensive metabolizers, total fat 70 kg
[3] = Extensive(a) average of obese steady-state concentration for extensive metabolizers, total fat 80 kg
[4] = Extensive(a) average of obese steady-state concentration for extensive metabolizers, total fat 90 kg
[5] = Extensive(a) average of obese steady-state concentration for extensive metabolizers, total fat 100 kg
[6] = Extensive(b) high of extensive metabolizers, total fat 40 kg
[7] = Extensive(b) high of extensive metabolizers, total fat 50 kg
[8] = Extensive(b) high of extensive metabolizers, total fat 60 kg
[9] = Extensive(b) high of extensive metabolizers, total fat 70 kg
[10] = Extensive(b) high of extensive metabolizers, total fat 80 kg
[11] = Extensive(b) high of extensive metabolizers, total fat 90 kg
[12] = Extensive(b) high of extensive metabolizers, total fat 100 kg
[13] = IM(c) average of intermediate metabolizer values, total fat 10 kg
[14] = IM(c) average of intermediate metabolizer values, total fat 20 kg
[15] = IM(c) average of intermediate metabolizer values, total fat 30 kg
[16] = IM(c) average of intermediate metabolizer values, total fat 40 kg
[17] = IM(c) average of intermediate metabolizer values, total fat 50 kg
[18] = IM(c) average of intermediate metabolizer values, total fat 60 kg
[19] = IM(c) average of intermediate metabolizer values, total fat 70 kg
[20] = IM(c) average of intermediate metabolizer values, total fat 80 kg
[21] = IM(c) average of intermediate metabolizer values, total fat 90 kg
[22] = IM(c) average of intermediate metabolizer values, total fat 100 kg
[23] = IM(d) high of IM values, total fat 10 kg
[24] = IM(d) high of IM values, total fat 20 kg
[25] = IM(d) high of IM values, total fat 30 kg
[26] = IM(d) high of IM values, total fat 40 kg
[27] = IM(d) high of IM values, total fat 50 kg
[28] = IM(d) high of IM values, total fat 60 kg
[29] = IM(d) high of IM values, total fat 70 kg
[30] = IM(d) high of IM values, total fat 80 kg
[31] = IM(d) high of IM values, total fat 90 kg
[32] = IM(d) high of IM values, total fat 100 kg
[33] = PM(e) estimated poor metabolizer values, total fat 10 kg
[34] = PM(e) estimated poor metabolizer values, total fat 20 kg
[35] = PM(e) estimated poor metabolizer values, total fat 30 kg
[36] = PM(e) estimated poor metabolizer values, total fat 40 kg
[37] = PM(e) estimated poor metabolizer values, total fat 50 kg
[38] = PM(e) estimated poor metabolizer values, total fat 60 kg
[39] = PM(e) estimated poor metabolizer values, total fat 70 kg
[40] = PM(e) estimated poor metabolizer values, total fat 80 kg
[41] = PM(e) estimated poor metabolizer values, total fat 90 kg
[42] = PM(e) estimated poor metabolizer values, total fat 100 kg

SMILES: Cc1ccc(Sc2ccccc2N2CCNCC2)c(C)c1 [vortioxetine]
- Half-Life Estimates (Extensive(a) average of obese steady-state concentration for extensive metabolizers, total fat 10 kg): 21 h
- Half-Life Estimates (Extensive(a) average of obese steady-state concentration for extensive metabolizers, total fat 20 kg): 32 h
- Half-Life Estimates (Extensive(a) average of obese steady-state concentration for extensive metabolizers, total fat 30 kg): 42 h
- Half-Life Estimates (Extensive(a) average of obese steady-state concentration for extensive metabolizers, total fat 40 kg): 52 h
- Half-Life Estimates (Extensive(a) average of obese steady-state concentration for extensive metabolizers, total fat 50 kg): 62 h
- Half-Life Estimates [1]: 73 h
- Weeks of Delay (7.5 X half-life) [1]: 3.2 Weeks
- Half-Life Estimates [2]: 83 h
- Weeks of Delay (7.5 X half-life) [2]: 3.7 Weeks
- Half-Life Estimates [3]: 93 h
- Weeks of Delay (7.5 X half-life) [3]: 4.2 Weeks
- Half-Life Estimates [4]: 103 h
- Weeks of Delay (7.5 X half-life) [4]: 4.6 Weeks
- Half-Life Estimates [5]: 114 h
- Weeks of Delay (7.5 X half-life) [5]: 5.1 Weeks
- Half-Life Estimates (Extensive(b) high of extensive metabolizers, total fat 10 kg): 39 h
- Half-Life Estimates (Extensive(b) high of extensive metabolizers, total fat 20 kg): 49 h
- Half-Life Estimates (Extensive(b) high of extensive metabolizers, total fat 30 kg): 59 h
- Half-Life Estimates [6]: 70 h
- Weeks of Delay (7.5 X half-life) [6]: 3.1 Weeks
- Half-Life Estimates [7]: 80 h
- Weeks of Delay (7.5 X half-life) [7]: 3.6 Weeks
- Half-Life Estimates [8]: 90 h
- Weeks of Delay (7.5 X half-life) [8]: 4.0 Weeks
- Half-Life Estimates [9]: 100 h
- Weeks of Delay (7.5 X half-life) [9]: 4.5 Weeks
- Half-Life Estimates [10]: 111 h
- Weeks of Delay (7.5 X half-life) [10]: 4.9 Weeks
- Half-Life Estimates [11]: 121 h
- Weeks of Delay (7.5 X half-life) [11]: 5.4 Weeks
- Half-Life Estimates [12]: 131 h
- Weeks of Delay (7.5 X half-life) [12]: 5.9 Weeks
- Half-Life Estimates [13]: 102 h
- Weeks of Delay (7.5 X half-life) [13]: 4.6 Weeks
- Half-Life Estimates [14]: 112 h
- Weeks of Delay (7.5 X half-life) [14]: 5.0 Weeks
- Half-Life Estimates [15]: 123 h
- Weeks of Delay (7.5 X half-life) [15]: 5.5 Weeks
- Half-Life Estimates [16]: 133 h
- Weeks of Delay (7.5 X half-life) [16]: 5.9 Weeks
- Half-Life Estimates [17]: 143 h
- Weeks of Delay (7.5 X half-life) [17]: 6.4 Weeks
- Half-Life Estimates [18]: 153 h
- Weeks of Delay (7.5 X half-life) [18]: 6.8 Weeks
- Half-Life Estimates [19]: 164 h
- Weeks of Delay (7.5 X half-life) [19]: 7.3 Weeks
- Half-Life Estimates [20]: 174 h
- Weeks of Delay (7.5 X half-life) [20]: 7.8 Weeks
- Half-Life Estimates [21]: 184 h
- Weeks of Delay (7.5 X half-life) [21]: 8.2 Weeks
- Half-Life Estimates [22]: 194 h
- Weeks of Delay (7.5 X half-life) [22]: 8.7 Weeks
- Half-Life Estimates [23]: 116 h
- Weeks of Delay (7.5 X half-life) [23]: 5.2 Weeks
- Weeks of Delay (21 day equivalency to Normal, 66 hr half-life) [23]: 5.3 Weeks
- Half-Life Estimates [24]: 126 h
- Weeks of Delay (7.5 X half-life) [24]: 5.6 Weeks
- Weeks of Delay (21 day equivalency to Normal, 66 hr half-life) [24]: 5.7 Weeks
- Half-Life Estimates [25]: 136 h
- Weeks of Delay (7.5 X half-life) [25]: 6.1 Weeks
- Weeks of Delay (21 day equivalency to Normal, 66 hr half-life) [25]: 6.2 Weeks
- Half-Life Estimates [26]: 147 h
- Weeks of Delay (7.5 X half-life) [26]: 6.5 Weeks
- Weeks of Delay (21 day equivalency to Normal, 66 hr half-life) [26]: 6.7 Weeks
- Half-Life Estimates [27]: 157 h
- Weeks of Delay (7.5 X half-life) [27]: 7.0 Weeks
- Weeks of Delay (21 day equivalency to Normal, 66 hr half-life) [27]: 7.1 Weeks
- Half-Life Estimates [28]: 167 h
- Weeks of Delay (7.5 X half-life) [28]: 7.5 Weeks
- Weeks of Delay (21 day equivalency to Normal, 66 hr half-life) [28]: 7.6 Weeks
- Half-Life Estimates [29]: 177 h
- Weeks of Delay (7.5 X half-life) [29]: 7.9 Weeks
- Half-Life Estimates [30]: 188 h
- Weeks of Delay (7.5 X half-life) [30]: 8.4 Weeks
- Half-Life Estimates [31]: 198 h
- Weeks of Delay (7.5 X half-life) [31]: 8.8 Weeks
- Weeks of Delay (21 day equivalency to Normal, 66 hr half-life) [31]: 9.0 Weeks
- Half-Life Estimates [32]: 208 h
- Weeks of Delay (7.5 X half-life) [32]: 9.3 Weeks
- Weeks of Delay (21 day equivalency to Normal, 66 hr half-life) [32]: 9.5 Weeks
- Half-Life Estimates [33]: 215 h
- Weeks of Delay (7.5 X half-life) [33]: 9.6 Weeks
- Half-Life Estimates [34]: 225 h
- Weeks of Delay (7.5 X half-life) [34]: 10.0 Weeks
- Half-Life Estimates [35]: 235 h
- Weeks of Delay (7.5 X half-life) [35]: 10.5 Weeks
- Half-Life Estimates [36]: 245 h
- Weeks of Delay (7.5 X half-life) [36]: 11.0 Weeks
- Half-Life Estimates [37]: 256 h
- Weeks of Delay (7.5 X half-life) [37]: 11.4 Weeks
- Half-Life Estimates [38]: 266 h
- Weeks of Delay (7.5 X half-life) [38]: 11.9 Weeks
- Half-Life Estimates [39]: 276 h
- Weeks of Delay (7.5 X half-life) [39]: 12.3 Weeks
- Half-Life Estimates [40]: 286 h
- Weeks of Delay (7.5 X half-life) [40]: 12.8 Weeks
- Half-Life Estimates [41]: 297 h
- Weeks of Delay (7.5 X half-life) [41]: 13.2 Weeks
- Half-Life Estimates [42]: 307 h
- Weeks of Delay (7.5 X half-life) [42]: 13.7 Weeks
